Source: patent US20140081017A1, “Histone Deacetylase Inhibitors for Enhancing Activity of Antifungal Agents” (METHYLGENE INC., priority 2012, published 2014)
Values after ≈ are worked out from the molar mass of the structure shown. Where two headings read alike, the source gives them in different places.

How the values were obtained:
[1] = system: Candida glabrata; experiment: Minimal Inhibitory Concentration (MIC) assay, broth microdilution per CLSI; assay type: cell-based; details: Nakaseomyces glabratus, read-out: Minimum Inhibitory Concentrations against Yeast Isolates, Candida glabrata;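 further: two read times 24 hr and 48 hr of incubation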
Summary of the method: (§1)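 Yeast isolates were grown overnight at 35° C on Sabouraud dextrose agar, adjusted to 0.5 McFarland in saline and diluted 1:100 in RPMI buffered with 0.165 M MOPS, pH 7.0. Compounds in DMSO were serially diluted 1:1. After 24-48 hr at 35° C, MIC was the lowest concentration inhibiting visible growth.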

[2] = system: Candida albicans; experiment: as above; assay type: cell-based; details: Candida albicans, read-out: Minimum Inhibitory Concentrations against Yeast Isolates, Candida albicans;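 further: two read times 24 hr and 48 hr of incubation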
Summary of the method: as §1

[3] = system: Candida parapsilosis; experiment: as above; assay type: cell-based; details: Lodderomyces parapsilosis, read-out: Minimum Inhibitory Concentrations against Yeast Isolates, Candida parapsilosis;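 further: two read times 24 hr and 48 hr of incubation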
Summary of the method: as §1

[4] = system: C. glabrata; experiment: Checkerboard FIC assay in combination with fluconazole (MIC alone and in combination, FICI); assay type: cell-based, Candida glabrata; details: for FICI of combination resulting in fluconazole MIC of: 2 ug/mL / FICI of combination resulting in fluconazole MIC of: 4 ug/mL / FICI of combination resulting in fluconazole MIC of: 8 ug/mL: FICI calculated using a fluconazole MIC of 16 μg/mL; for FICI of combination resulting in fluconazole MIC of: 2 ug/mL (value in parenthesis) / FICI of combination resulting in fluconazole MIC of: 4 ug/mL (value in parenthesis) / FICI of combination resulting in fluconazole MIC of: 8 ug/mL (value in parenthesis): FICI using a fluconazole MIC of 128 μg/mL; for MIC: Nakaseomyces glabratus; for Multiple of compound MIC to synergize fluconazole MIC to 2 ug/mL / Multiple of compound MIC to synergize fluconazole MIC to 4 ug/mL / Multiple of compound MIC to synergize fluconazole MIC to 8 ug/mL: concentration in combination as multiple of the compound's MIC alone; for Multiple of compound MIC to synergize fluconazole MIC to 2 ug/mL: fluconazole MIC 2 ug/mL; for Multiple of compound MIC to synergize fluconazole MIC to 4 ug/mL: fluconazole MIC 4 ug/mL; for Multiple of compound MIC to synergize fluconazole MIC to 8 ug/mL: fluconazole MIC 8 ug/mL; for Concentration of Methylgene compound to synergize fluconazole MIC to 2 ug/mL / Concentration of Methylgene compound to synergize fluconazole MIC to 4 ug/mL / Concentration of Methylgene compound to synergize fluconazole MIC to 8 ug/mL: in combination with fluconazole; for Concentration of Methylgene compound to synergize fluconazole MIC to 2 ug/mL: fluconazole MIC lowered to 2 ug/mL; for Concentration of Methylgene compound to synergize fluconazole MIC to 4 ug/mL: fluconazole MIC lowered to 4 ug/mL; for Concentration of Methylgene compound to synergize fluconazole MIC to 8 ug/mL: fluconazole MIC lowered to 8 ug/mL
Summary of the method: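 C. glabrata was tested by CLSI broth microdilution checkerboard, crossing 2-fold dilutions of compound with 2-fold dilutions of fluconazole. The medium was RPMI with 0.165 M MOPS at pH 7.0, inoculated from a 0.5 McFarland suspension diluted 1:100, then incubated about 48 h at 35 °C. Single-agent MICs gave the FIC and FICI values.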

[5] = 24 hr reading (first value of cell 24 hr/48 hr)
[6] = 48 hr reading (second value of cell 24 hr/48 hr)
[7] = MIC of the example compound alone against C. glabrata in the checkerboard assay, approximately 48 hr, read-out: Methylgene MIC
[8] = test compound alone, C. glabrata, approx. 48 hr at 35° C., read-out: Compound MIC

| Structure (SMILES) | MIC [1, 5] | MIC [1, 6] | MIC [2, 5] | MIC [2, 6] | MIC [3, 5] | MIC [3, 6] | FICI of combination resulting in fluconazole MIC of: 2 ug/mL ([4]; C. glabrata) | FICI of combination resulting in fluconazole MIC of: 4 ug/mL ([4]; C. glabrata) | FICI of combination resulting in fluconazole MIC of: 8 ug/mL ([4]; C. glabrata) | FICI of combination resulting in fluconazole MIC of: 2 ug/mL (value in parenthesis) ([4]; C. glabrata) | FICI of combination resulting in fluconazole MIC of: 4 ug/mL (value in parenthesis) ([4]; C. glabrata) | FICI of combination resulting in fluconazole MIC of: 8 ug/mL (value in parenthesis) ([4]; C. glabrata) | MIC [4, 7] | MIC [4, 8] | Multiple of compound MIC to synergize fluconazole MIC to 2 ug/mL [4] | Multiple of compound MIC to synergize fluconazole MIC to 4 ug/mL [4] | Multiple of compound MIC to synergize fluconazole MIC to 8 ug/mL [4] | Concentration of Methylgene compound to synergize fluconazole MIC to 2 ug/mL ([4]; C. glabrata) | Concentration of Methylgene compound to synergize fluconazole MIC to 4 ug/mL ([4]; C. glabrata) | Concentration of Methylgene compound to synergize fluconazole MIC to 8 ug/mL ([4]; C. glabrata) |
| --- | --- | --- | --- | --- | --- | --- | --- | --- | --- | --- | --- | --- | --- | --- | --- | --- | --- | --- | --- | --- |
| O=C(Cc1ccc(CCCCc2ccc(C(=O)N3CCN(C/C=C/c4ccccc4)CC3)cc2)cc1)NO [Example 20, (E)-2-(4-(4-(4-(4-cinnamylpiperazine-1-carbonyl)phenyl)butyl)phenyl)-N-hydroxyacetamide] | 2 mg/L (≈ 3.91 µM) | 2 mg/L (≈ 3.91 µM) | > 8 mg/L | > 8 mg/L | > 8 mg/L | > 8 mg/L | 0.563 | 0.375 | 0.500 | 0.516 | 0.281 | 0.313 | 1 mg/L | 1 mg/L | (½x) | (¼x) | (¼x) | 0.5 mg/L | 0.25 mg/L | 0.25 mg/L |
| O=C(Cc1ccc(CCCCc2ccc(C(=O)N3CCN(CCn4ccnc4)CC3)cc2)cc1)NO [Example 21, 2-(4-(4-(4-(4-(2-(1H-imidazol-1-yl)ethyl)piperazine-1-carbonyl)phenyl)butyl)phenyl)-N-hydroxyacetamide] | 16 mg/L (≈ 32.7 µM) | 32 mg/L (≈ 65.4 µM) | > 64 mg/L | > 64 mg/L | > 64 mg/L | > 64 mg/L | 0.313 | 0.250 | 0.375 | 0.266 | 0.156 | 0.188 | 16 mg/L | 16 mg/L | (¼x) | (⅛X) | (⅛X) | 4 mg/L | 2 mg/L | 2 mg/L |
| O=C(Cc1ccc(CCCCc2ccc(C(=O)NCCCn3ccnc3)cc2)cc1)NO [Example 22, N-(3-(1H-imidazol-1-yl)propyl)-4-(4-(4-(2-(hydroxyamino)-2-oxoethyl)phenyl)butyl)benzamide] | 8 mg/L (≈ 18.4 µM) | > 8 mg/L | > 8 mg/L | > 8 mg/L | > 8 mg/L | > 8 mg/L | 0.188 | 0.250 | 0.313 | 0.141 | 0.156 | 0.125 | 16 mg/L | 16 mg/L | (⅛x) | (⅛x) | ( 1/16x) | 2 mg/L | 2 mg/L | 1 mg/L |
| Cn1cnc(CNC(=O)c2ccc(CCCCc3ccc(CC(=O)NO)cc3)cc2)c1 [Example 23, 4-(4-(4-(2-(hydroxyamino)-2-oxoethyl)phenyl)butyl)-N-((1-methyl-1H-imidazol-4-yl)methyl)benzamide] | 8 mg/L (≈ 19 µM) | > 8 mg/L | > 8 mg/L | > 8 mg/L | > 8 mg/L | > 8 mg/L | 0.313 | 0.250 | 0.375 | 0.266 | 0.156 | 0.188 | > 8 mg/L | > 8 mg/L |  |  |  | 4 mg/L | 2 mg/L | 2 mg/L |
| O=C(Cc1ccc(CCCCc2ccc(C(=O)N3CCOCCOCCOCCOCCOCC3)cc2)cc1)NO [Example 24, 2-(4-(4-(4-(1,4,7,10,13-pentaoxa-16-azacyclooctadecane-16-carbonyl)phenyl)butyl)phenyl)-N-hydroxyacetamide] | 16 mg/L (≈ 27.9 µM) | 64 mg/L (≈ 112 µM) | > 64 mg/L | > 64 mg/L | > 64 mg/L | > 64 mg/L | 0.313 | 0.250 | 0.313 | 0.266 | 0.156 | 0.125 | > 16 mg/L | > 16 mg/L |  |  |  | 8 mg/L | 4 mg/L | 2 mg/L |
| O=C(Cc1ccc(CCCC(O)c2ccccc2)cc1)NO (stereo not shown) [Example 25, N-hydroxy-2-(4-(4-hydroxy-4-phenylbutyl)phenyl)acetamide] | 16 mg/L (≈ 53.4 µM) | 64 mg/L (≈ 214 µM) | > 64 mg/L | > 64 mg/L | > 64 mg/L | > 64 mg/L | 0.563 | 0.375 | 0.375 | 0.516 | 0.281 | 0.188 | > 16 mg/L | > 16 mg/L |  |  |  | 16 mg/L | 8 mg/L | 4 mg/L |
| O=C(Cc1ccc(CCCC(F)c2ccccc2)cc1)NO (stereo not shown) [Example 26, 2-(4-(4-fluoro-4-phenylbutyl)phenyl)-N-hydroxyacetamide] | 2 mg/L (≈ 6.64 µM) | 8 mg/L (≈ 26.5 µM) | 4 mg/L (≈ 13.3 µM) | 8 mg/L (≈ 26.5 µM) | 4 mg/L (≈ 13.3 µM) | 8 mg/L (≈ 26.5 µM) | 0.313 | 0.250 | 0.313 | 0.266 | 0.156 | 0.125 | 8 mg/L | 8 mg/L | (¼x) | (⅛x) | ( 1/16x) | 2 mg/L | 1 mg/L | 0.5 mg/L |
| O=C(Cc1ccc(CCC/C(=N\O)c2ccccc2)cc1)NO [Example 27, (E)-N-hydroxy-2-(4-(4-(hydroxyimino)-4-phenylbutyl)phenyl) acetamide] | 8 mg/L (≈ 25.6 µM) | 16 mg/L (≈ 51.2 µM) | 64 mg/L (≈ 205 µM) | 64 mg/L (≈ 205 µM) | > 64 mg/L | > 64 mg/L | 0.313 | 0.375 | 0.375 | 0.266 | 0.281 | 0.188 | 16 mg/L | 16 mg/L | (¼x) | (¼x) | (⅛x) | 4 mg/L | 4 mg/L | 2 mg/L |
